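In this assay, cells in 96-well plates receive the compound at five concentrations for 48 hours. Endpoints are linearly interpolated between the surrounding concentrations. At the GI50, growth is halved.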 Calls of active or inactive are those of the source. Rule as the data show it: active = GI50 up to about 1.1 µM and inactive = higher.
Key:
Test in all cases: inhibition of tumour cell growth, NCI panel, 48 h
SK-MEL-2 = tested on: SK-MEL-2
MOLT-4 = tested on: MOLT-4
SNB-75 = tested on: SNB-75
UACC-257 = tested on: UACC-257
MDA-MB-231 = tested on: MDA-MB-231
MDA-N = tested on: MDA-N
A498 = tested on: A498
IGROV-1 = tested on: IGROV-1
HCT-15 = tested on: HCT-15
SK-MEL-28 = tested on: SK-MEL-28
NCI-H460 = tested on: NCI-H460
HOP-62 = tested on: HOP-62
CCRF-CEM = tested on: CCRF-CEM
MCF7 = tested on: MCF7
KM12 = tested on: KM12
PC-3 = tested on: PC-3
SF-268 = tested on: SF-268
OVCAR-4 = tested on: OVCAR-4
BT-549 = tested on: BT-549
ACHN = tested on: ACHN
SNB-19 = tested on: SNB-19
HT-29 = tested on: HT-29
SK-OV-3 = tested on: SK-OV-3
HCT-116 = tested on: HCT-116
RPMI-8226 = tested on: RPMI-8226
NCI/ADR-RES = tested on: NCI/ADR-RES
OVCAR-3 = tested on: OVCAR-3
COLO 205 = tested on: COLO 205
EKVX = tested on: EKVX
Hs-578T = tested on: Hs-578T
NCI-H522 = tested on: NCI-H522
SF-539 = tested on: SF-539
SK-MEL-5 = tested on: SK-MEL-5
HOP-92 = tested on: HOP-92
M14 = tested on: M14
HL-60 = tested on: HL-60
SN12C = tested on: SN12C
HCC 2998 = tested on: HCC 2998
786-0 = tested on: 786-0
LOX IMVI = tested on: LOX IMVI
NCI-H23 = tested on: NCI-H23
UO-31 = tested on: UO-31
CAKI-1 = tested on: CAKI-1
U-251 = tested on: U-251
OVCAR-8 = tested on: OVCAR-8
MDA-MB-435 = tested on: MDA-MB-435
A549 = tested on: A549
RXF 393 = tested on: RXF 393
SF-295 = tested on: SF-295
SW-620 = tested on: SW-620
OVCAR-5 = tested on: OVCAR-5
UACC-62 = tested on: UACC-62
TK-10 = tested on: TK-10
SR = tested on: SR
K562 = tested on: K562
Malme-3M = tested on: Malme-3M
T47D = tested on: T47D
NCI-H226 = tested on: NCI-H226
DU-145 = tested on: DU-145

CC1OC(OC2C(OC(=O)[C@]34CCC(C)(C)C[C@H]3C3=CC[C@@H]5[C@@]6(C)CC[C@H](OC7OC(CO)C(O)C(O)C7OC7OC(CO)C(O)C(O)C7O)C(C)(C)[C@@H]6CC[C@@]5(C)[C@]3(C)CC4)OCC(O)C2O)C(O)C(OC2OCC(O)C(O)C2O)C1OC1OCC(O)C(OC2OCC(O)C(O)C2O)C1O (some centres not stated)
GI50 (SK-MEL-2): 8.57 µM (inactive) | GI50 (MOLT-4): 13.2 µM (inactive) | GI50 (SNB-75): 18.7 µM (inactive) | GI50 (UACC-257): 3.78 µM (inactive) | GI50 (MDA-MB-231): 7.6 µM (inactive) | GI50 (MDA-N): 2.27 µM (inactive) | GI50 (A498): 2.24 µM (inactive) | GI50 (IGROV-1): 19.1 µM (inactive) | GI50 (HCT-15): 22.7 µM | GI50 (SK-MEL-28): 2.37 µM (inactive) | GI50 (NCI-H460): 69 µM (inactive) | GI50 (HOP-62): 14 µM (inactive) | GI50 (CCRF-CEM): 22.3 µM (inactive) | GI50 (MCF7): 7.71 µM (inactive) | GI50 (KM12): 7.31 µM (inactive) | GI50 (PC-3): 11.8 µM (inactive) | GI50 (SF-268): 9.51 µM (inactive) | GI50 (OVCAR-4): 10 µM (inactive) | GI50 (BT-549): 8.28 µM (inactive) | GI50 (ACHN): 9.4 µM (inactive) | GI50 (SNB-19): 16.7 µM (inactive) | GI50 (HT-29): 4.23 µM (inactive) | GI50 (SK-OV-3): 32.2 µM (inactive) | GI50 (HCT-116): 8.97 µM (inactive) | GI50 (RPMI-8226): 7.69 µM (inactive) | GI50 (NCI/ADR-RES): 11 µM (inactive) | GI50 (OVCAR-3): 23.4 µM (inactive) | GI50 (COLO 205): 2.77 µM (inactive) | GI50 (EKVX): 4.34 µM (inactive) | GI50 (Hs-578T): 21.4 µM (inactive) | GI50 (NCI-H522): 3.19 µM (inactive) | GI50 (SF-539): 67.8 µM (inactive) | GI50 (SK-MEL-5): 9.4 µM (inactive) | GI50 (HOP-92): 6.84 µM (inactive) | GI50 (M14): 2.42 µM (inactive) | GI50 (HL-60): 3.94 µM (inactive) | GI50 (SN12C): 2.26 µM (inactive) | GI50 (HCC 2998): 2.14 µM (inactive) | GI50 (786-0): 12.2 µM (inactive) | GI50 (LOX IMVI): 16.2 µM (inactive) | GI50 (NCI-H23): 6.37 µM (inactive) | GI50 (UO-31): 2.14 µM (inactive) | GI50 (CAKI-1): 6.67 µM (inactive) | GI50 (U-251): 18.2 µM (inactive) | GI50 (OVCAR-8): 18 µM (inactive) | GI50 (MDA-MB-435): 2.26 µM (inactive) | GI50 (A549): 3.7 µM (inactive) | GI50 (RXF 393): 16.4 µM (inactive) | GI50 (SF-295): 7.62 µM (inactive) | GI50 (SW-620): 15.7 µM (inactive) | GI50 (OVCAR-5): 8.55 µM (inactive) | GI50 (UACC-62): 13.5 µM (inactive) | GI50 (TK-10): 13.4 µM (inactive) | GI50 (SR): 5.19 µM (inactive) | GI50 (K562): 6.55 µM (inactive) | GI50 (Malme-3M): 4.46 µM (inactive) | GI50 (T47D): 14.7 µM (inactive) | GI50 (NCI-H226): 7.05 µM (inactive) | GI50 (DU-145): 10.5 µM (inactive)

CN(C)/C=N/S(=O)(=O)c1nn2c(C=O)c(-c3ccc([N+](=O)[O-])cc3)nc2s1
GI50 (SK-MEL-2): 10.4 µM (inactive) | GI50 (MOLT-4): 2.35 µM (inactive) | GI50 (SNB-75): 23.6 µM (inactive) | GI50 (UACC-257): 9.44 µM (inactive) | GI50 (MDA-MB-231): 12.4 µM (inactive) | GI50 (MDA-N): 2.91 µM (inactive) | GI50 (A498): 27.6 µM (inactive) | GI50 (IGROV-1): 3.15 µM (inactive) | GI50 (HCT-15): 2.94 µM | GI50 (SK-MEL-28): 4.23 µM (inactive) | GI50 (NCI-H460): 13.6 µM (inactive) | GI50 (HOP-62): 26.1 µM (inactive) | GI50 (CCRF-CEM): 0.834 µM (active) | GI50 (MCF7): 4.68 µM (inactive) | GI50 (KM12): 9.12 µM (inactive) | GI50 (PC-3): 7.21 µM (inactive) | GI50 (SF-268): 13.6 µM (inactive) | GI50 (OVCAR-4): 11.4 µM (inactive) | GI50 (BT-549): 3.79 µM (inactive) | GI50 (ACHN): 2.03 µM (inactive) | GI50 (SNB-19): 28.6 µM (inactive) | GI50 (HT-29): 1.54 µM (inactive) | GI50 (SK-OV-3): 53.7 µM (inactive) | GI50 (HCT-116): 1.67 µM (inactive) | GI50 (RPMI-8226): 2.39 µM (inactive) | GI50 (NCI/ADR-RES): 8.85 µM (inactive) | GI50 (OVCAR-3): 4.11 µM (inactive) | GI50 (COLO 205): 3.18 µM (inactive) | GI50 (EKVX): 16.6 µM (inactive) | GI50 (Hs-578T): 24.5 µM (inactive) | GI50 (NCI-H522): 1.27 µM (inactive) | GI50 (SF-539): 8.11 µM (inactive) | GI50 (SK-MEL-5): 3.3 µM (inactive) | GI50 (HOP-92): 12.6 µM (inactive) | GI50 (M14): 2.79 µM (inactive) | GI50 (HL-60): 1.38 µM (inactive) | GI50 (SN12C): 5.42 µM (inactive) | GI50 (HCC 2998): 17.4 µM (inactive) | GI50 (786-0): 2.29 µM (inactive) | GI50 (LOX IMVI): 2.93 µM (inactive) | GI50 (NCI-H23): 12 µM (inactive) | GI50 (UO-31): 2.61 µM (inactive) | GI50 (CAKI-1): 0.627 µM (active) | GI50 (U-251): 8.69 µM (inactive) | GI50 (OVCAR-8): 3.67 µM (inactive) | GI50 (MDA-MB-435): 6.3 µM (inactive) | GI50 (A549): 22.8 µM (inactive) | GI50 (RXF 393): 5.62 µM (inactive) | GI50 (SF-295): 35.1 µM (inactive) | GI50 (SW-620): 2.52 µM (inactive) | GI50 (OVCAR-5): 23.4 µM (inactive) | GI50 (UACC-62): 4.91 µM (inactive) | GI50 (TK-10): 5.73 µM (inactive) | GI50 (SR): 2.06 µM (inactive) | GI50 (K562): 2.43 µM (inactive) | GI50 (Malme-3M): 2.23 µM (inactive) | GI50 (T47D): 5.68 µM (inactive) | GI50 (NCI-H226): 19.6 µM (inactive) | GI50 (DU-145): 6.67 µM (inactive)

COc1ccc2c(c1)CCCN2S(=O)(=O)c1ccccc1[N+](=O)[O-]
GI50 (SK-MEL-2): 22.5 µM (inactive) | GI50 (MOLT-4): 14.4 µM (inactive) | GI50 (SNB-75): 24.1 µM (inactive) | GI50 (UACC-257): 71.9 µM (inactive) | GI50 (MDA-MB-231): 53.5 µM (inactive) | GI50 (MDA-N): 3.73 µM (inactive) | GI50 (A498): 33.4 µM (inactive) | GI50 (IGROV-1): 34.3 µM (inactive) | GI50 (HCT-15): 14.3 µM | GI50 (SK-MEL-28): 68.5 µM (inactive) | GI50 (NCI-H460): 26 µM (inactive) | GI50 (HOP-62): 47.5 µM (inactive) | GI50 (CCRF-CEM): 33.7 µM (inactive) | GI50 (MCF7): 21.6 µM (inactive) | GI50 (KM12): 10.7 µM (inactive) | GI50 (PC-3): 34.9 µM (inactive) | GI50 (SF-268): 49.5 µM (inactive) | GI50 (OVCAR-4): 45.7 µM (inactive) | GI50 (BT-549): 9.06 µM (inactive) | GI50 (ACHN): 41.1 µM (inactive) | GI50 (SNB-19): > 73.3 µM (inactive) | GI50 (HT-29): 21.4 µM (inactive) | GI50 (SK-OV-3): 24 µM (inactive) | GI50 (HCT-116): 24.2 µM (inactive) | GI50 (RPMI-8226): 29.4 µM (inactive) | GI50 (NCI/ADR-RES): 19.2 µM (inactive) | GI50 (OVCAR-3): 47.8 µM (inactive) | GI50 (COLO 205): 40.6 µM (inactive) | GI50 (EKVX): 56 µM (inactive) | GI50 (Hs-578T): 43.7 µM (inactive) | GI50 (NCI-H522): 26.7 µM (inactive) | GI50 (SF-539): 27.7 µM (inactive) | GI50 (SK-MEL-5): 41.8 µM (inactive) | GI50 (HOP-92): 42.6 µM (inactive) | GI50 (M14): 40.8 µM (inactive) | GI50 (HL-60): 4.56 µM (inactive) | GI50 (SN12C): 65.6 µM (inactive) | GI50 (HCC 2998): 35.6 µM (inactive) | GI50 (786-0): 58.5 µM (inactive) | GI50 (LOX IMVI): 32.4 µM (inactive) | GI50 (NCI-H23): 46.2 µM (inactive) | GI50 (UO-31): 43 µM (inactive) | GI50 (CAKI-1): > 89.5 µM (inactive) | GI50 (U-251): 24.3 µM (inactive) | GI50 (OVCAR-8): 53.7 µM (inactive) | GI50 (MDA-MB-435): 2.99 µM (inactive) | GI50 (A549): 53.7 µM (inactive) | GI50 (RXF 393): 25.6 µM (inactive) | GI50 (SF-295): 30.5 µM (inactive) | GI50 (SW-620): 17.4 µM (inactive) | GI50 (OVCAR-5): 84.3 µM (inactive) | GI50 (UACC-62): 47.8 µM (inactive) | GI50 (TK-10): 54.8 µM (inactive) | GI50 (SR): 11.1 µM (inactive) | GI50 (K562): 5.89 µM (inactive) | GI50 (Malme-3M): 40.8 µM (inactive) | GI50 (T47D): 48.2 µM (inactive) | GI50 (NCI-H226): 44.2 µM (inactive) | GI50 (DU-145): 74.5 µM (inactive)
